Data: ChEMBL document CHEMBL3885881, “DrugMatrix”

Species: Rattus norvegicus
Assay: DrugMatrix - Regimen: Daily Repeat
Assay type: toxicity, organism-based, Sprague-Dawley
Set-up: regimen Daily Repeat, gender Male, age 6-8 weeks
Settings: in vivo, po, route oral GAVAGE, vehicle 100 % WATER; for ABSOLUTE BASOPHIL / ABSOLUTE EOSINOPHIL / ABSOLUTE LYMPHOCYTE / ABSOLUTE MONOCYTE / ABSOLUTE SEGMENTED NEUTROPHIL / BASOPHIL / EOSINOPHIL / ERYTHROCYTE COUNT / HEMATOCRIT / HEMOGLOBIN / LEUKOCYTE COUNT / LYMPHOCYTE / MEAN CORPUSCULAR HEMOGLOBIN / MEAN CORPUSCULAR HEMOGLOBIN CONCENTRATION / MEAN CORPUSCULAR VOLUME / MONOCYTE / NEUTROPHIL / NUCLEATED RED BLOOD CELLS / PLATELET COUNT: tissue Blood; for ALANINE AMINOTRANSFERASE / ALBUMIN / ALKALINE PHOSPHATASE / ASPARTATE AMINOTRANSFERASE / BLOOD UREA NITROGEN / CARBON DIOXIDE / CHLORIDE / CHOLESTEROL / CREATINE PHOSPHOKINASE / CREATININE / GLUCOSE / LACTATE DEHYDROGENASE / LIPASE / PHOSPHORUS / POTASSIUM / SODIUM / TOTAL BILIRUBIN / TOTAL PROTEIN / URIC ACID: tissue Plasma
[1] = 0 mg/kg, 72 h, dose level Control, time 3 day
[2] = 0 mg/kg, 120 h, dose level Control, time 5 day
[3] = 200 mg/kg, 72 h, dose level Low, time 3 day

What does the source list for `O=C(O)c1cccnc1` [NIACIN]?
ABSOLUTE BASOPHIL [1]: 0 CELLS/uL; ABSOLUTE EOSINOPHIL [1]: 0 CELLS/uL; ABSOLUTE LYMPHOCYTE [1]: 10386.33 CELLS/uL; ABSOLUTE MONOCYTE [1]: 88.5 CELLS/uL; ABSOLUTE SEGMENTED NEUTROPHIL [1]: 1008.5 CELLS/uL; BASOPHIL [1]: 0%; EOSINOPHIL [1]: 0%; ERYTHROCYTE COUNT [1]: 5.16 x10E6/uL; HEMATOCRIT [1]: 32.43%; HEMOGLOBIN [1]: 12.98 G/DL; LEUKOCYTE COUNT [1]: 11.48 x10E3/uL; LYMPHOCYTE [1]: 92.33%; MEAN CORPUSCULAR HEMOGLOBIN [1]: 25.23 pg; MEAN CORPUSCULAR HEMOGLOBIN CONCENTRATION [1]: 40.08 G/DL; MEAN CORPUSCULAR VOLUME [1]: 62.95 fL; MONOCYTE [1]: 0.67%; NEUTROPHIL [1]: 7%; NUCLEATED RED BLOOD CELLS [1]: 0 /100WBC; PLATELET COUNT [1]: 1016.67 x10E3/uL; ALANINE AMINOTRANSFERASE [1]: 62.17 u/L; ALBUMIN [1]: 3.95 G/DL; ALKALINE PHOSPHATASE [1]: 363.5 u/L; ASPARTATE AMINOTRANSFERASE [1]: 118 u/L; BLOOD UREA NITROGEN [1]: 14.5 mg/dL; CARBON DIOXIDE [1]: 22.83 mmol/L; CHLORIDE [1]: 100.67 MEQ/L; CHOLESTEROL [1]: 66 mg/dL; CREATINE PHOSPHOKINASE [1]: 1308.83 u/L; CREATININE [1]: 0.22 mg/dL; GLUCOSE [1]: 187.5 mg/dL; LACTATE DEHYDROGENASE [1]: 380.17 u/L; LIPASE [1]: 16.17 u/L; PHOSPHORUS [1]: 14.27 mg/dL; POTASSIUM [1]: 6.8 MEQ/L; SODIUM [1]: 142.53 MEQ/L; TOTAL BILIRUBIN [1]: 0.2 mg/dL; TOTAL PROTEIN [1]: 5.68 G/DL; URIC ACID [1]: 2.87 mg/dL; ABSOLUTE BASOPHIL [2]: 0 CELLS/uL; ABSOLUTE EOSINOPHIL [2]: 80 CELLS/uL; ABSOLUTE LYMPHOCYTE [2]: 13301.33 CELLS/uL; ABSOLUTE MONOCYTE [2]: 180.83 CELLS/uL; ABSOLUTE SEGMENTED NEUTROPHIL [2]: 1187.83 CELLS/uL; BASOPHIL [2]: 0%; EOSINOPHIL [2]: 0.5%; ERYTHROCYTE COUNT [2]: 5.54 x10E6/uL; HEMATOCRIT [2]: 35.65%; HEMOGLOBIN [2]: 14.22 G/DL; LEUKOCYTE COUNT [2]: 14.75 x10E3/uL; LYMPHOCYTE [2]: 90.67%; MEAN CORPUSCULAR HEMOGLOBIN [2]: 25.65 pg; MEAN CORPUSCULAR HEMOGLOBIN CONCENTRATION [2]: 39.88 G/DL; MEAN CORPUSCULAR VOLUME [2]: 64.35 fL; MONOCYTE [2]: 1%; NEUTROPHIL [2]: 7.83%; NUCLEATED RED BLOOD CELLS [2]: 0.17 /100WBC; PLATELET COUNT [2]: 1285.33 x10E3/uL; ALANINE AMINOTRANSFERASE [2]: 51.67 u/L; ALBUMIN [2]: 4.08 G/DL; ALKALINE PHOSPHATASE [2]: 391.5 u/L; ASPARTATE AMINOTRANSFERASE [2]: 99.5 u/L; BLOOD UREA NITROGEN [2]: 15.5 mg/dL; CARBON DIOXIDE [2]: 28.33 mmol/L; CHLORIDE [2]: 101.83 MEQ/L; CHOLESTEROL [2]: 67.83 mg/dL; CREATINE PHOSPHOKINASE [2]: 771.33 u/L; CREATININE [2]: 0.23 mg/dL; GLUCOSE [2]: 156.5 mg/dL; LACTATE DEHYDROGENASE [2]: 544.33 u/L; LIPASE [2]: 10.17 u/L; PHOSPHORUS [2]: 12.03 mg/dL; POTASSIUM [2]: 6.81 MEQ/L; SODIUM [2]: 144.13 MEQ/L; TOTAL BILIRUBIN [2]: 0.22 mg/dL; TOTAL PROTEIN [2]: 6 G/DL; URIC ACID [2]: 2.18 mg/dL; ABSOLUTE BASOPHIL [3]: 0 CELLS/uL; ABSOLUTE EOSINOPHIL [3]: 118.67 CELLS/uL; ABSOLUTE LYMPHOCYTE [3]: 13131.33 CELLS/uL; ABSOLUTE MONOCYTE [3]: 410.33 CELLS/uL; ABSOLUTE SEGMENTED NEUTROPHIL [3]: 1606.33 CELLS/uL; BASOPHIL [3]: 0%; EOSINOPHIL [3]: 0.67%; ERYTHROCYTE COUNT [3]: 5.09 x10E6/uL; HEMATOCRIT [3]: 32.87%; HEMOGLOBIN [3]: 13.13 G/DL; LEUKOCYTE COUNT [3]: 15.27 x10E3/uL; LYMPHOCYTE [3]: 86%; MEAN CORPUSCULAR HEMOGLOBIN [3]: 25.8 pg; MEAN CORPUSCULAR HEMOGLOBIN CONCENTRATION [3]: 39.97 G/DL; MEAN CORPUSCULAR VOLUME [3]: 64.6 fL; MONOCYTE [3]: 2.67%; NEUTROPHIL [3]: 10.67%; NUCLEATED RED BLOOD CELLS [3]: 0 /100WBC; PLATELET COUNT [3]: 1167 x10E3/uL; ALANINE AMINOTRANSFERASE [3]: 51 u/L; ALBUMIN [3]: 4 G/DL; ALKALINE PHOSPHATASE [3]: 346.33 u/L; ASPARTATE AMINOTRANSFERASE [3]: 113.33 u/L; BLOOD UREA NITROGEN [3]: 12 mg/dL; CARBON DIOXIDE [3]: 23.33 mmol/L; CHLORIDE [3]: 103.33 MEQ/L; CHOLESTEROL [3]: 74.67 mg/dL; CREATINE PHOSPHOKINASE [3]: 1459.33 u/L; CREATININE [3]: 0.2 mg/dL; GLUCOSE [3]: 170 mg/dL; LACTATE DEHYDROGENASE [3]: 168.33 u/L; LIPASE [3]: 11 u/L; PHOSPHORUS [3]: 12.67 mg/dL; POTASSIUM [3]: 5.75 MEQ/L; SODIUM [3]: 144.4 MEQ/L; TOTAL BILIRUBIN [3]: 0.2 mg/dL; TOTAL PROTEIN [3]: 5.8 G/DL; URIC ACID [3]: 1.1 mg/dL
